Biological target: T1, FimH (Escherichia coli, UniProt Q1R2J4)
T1 construct: endogenous in cells; host or cells: E. coli UTI89 whole bacteria, agglutinating guinea pig red blood cells
Format: cell-based
Details: concentration reducing bacterial agglutination of guinea pig red blood cells by greater than 90%; UTI89 bacteria
Experimental: Hemagglutination Inhibition Assay (HAI)
The hemagglutination inhibition (HAI) assay was performed with UTI89 bacteria and guinea pig red blood cells, as previously described (S. J. Hultgren, W. R. Schwan, A. J. Schaeffer, J. L. Duncan Infect. Immun. 1986, 54, 613-620 and Jarvis, C.; Han, Z.; Kalas, V.; Klein, R.; Pinkner, J. S.; Ford, B.; Binkley, J.; Cusumano, C. K.; Cusumano, Z.; Mydock-McGrane, L.; Hultgren, S. J.; Janetka, J. W., ChemMedChem 2016, 11, 367-373).
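Note: concentration in nM.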

Which “HAI titer EC > 90” value does the source give for `Cc1cc(-c2cc(F)c(C(C)O)c(F)c2)ccc1C(O)C1OC(CO)C(O)C(O)C1O` (mixture of isomers) [Example 95] here?
Its value is ““++++” (<50 “++++”)”.

Which “HAI titer EC > 90” value does the source give for `Cc1cc(-c2cc(F)c(C(C)O)c(F)c2)ccc1[C@@H](O)[C@H]1O[C@H](CO)[C@@H](O)[C@H](O)[C@@H]1O` (single isomer, unassigned) [Example 107] here?
The value was ““++++” (<50 “++++”)”.

How did the “HAI titer EC > 90” value turn out when `Cc1cc(-c2cc(F)c(C(C)O)c(F)c2)ccc1[C@@H](O)[C@H]1O[C@H](CO)[C@@H](O)[C@H](O)[C@@H]1O` (single isomer, unassigned) [Example 108] was run?
Its value is ““++++” (<50 “++++”)”.

`Cc1cc(-c2cc(Cl)ccc2OC(C)C)ccc1[C@@H](O)[C@H]1O[C@H](CO)[C@@H](O)[C@H](O)[C@@H]1O` [Example 10] was tested. Which “HAI titer EC > 90” value did it give?
The value was ““++++” (<50 “++++”)”.

With `Cc1cc(-c2cc(C)c(Cl)c(C)c2)ccc1[C@@H](O)[C@H]1O[C@H](CO)[C@@H](O)[C@H](O)[C@@H]1O` [Example 12] as the compound, how does the “HAI titer EC > 90” value read?
The value was ““+++” (50-200 “+++”)”.

For `Cc1cc(-c2ccc([C@@H](O)[C@H]3O[C@H](CO)[C@@H](O)[C@H](O)[C@@H]3O)c(C)c2)cc(C(C)(C)C)c1` [Example 14], which “HAI titer EC > 90” value is on record?
The value was ““+++” (50-200 “+++”)”.

For `Cc1cc(-c2cc(F)ccc2F)ccc1[C@@H](O)[C@H]1O[C@H](CO)[C@@H](O)[C@H](O)[C@@H]1O` [Example 17], which “HAI titer EC > 90” value is on record?
Its value is ““+++” (50-200 “+++”)”.

`Cc1cc(-c2cccc(F)c2F)ccc1[C@@H](O)[C@H]1O[C@H](CO)[C@@H](O)[C@H](O)[C@@H]1O` [Example 18] was tested. Which “HAI titer EC > 90” value did it give?
Its value is ““+++” (50-200 “+++”)”.

For `Cc1cc(-c2cc(Cl)c(Cl)cc2O)ccc1[C@@H](O)[C@H]1O[C@H](CO)[C@@H](O)[C@H](O)[C@@H]1O` [Example 19], which “HAI titer EC > 90” value is on record?
The value was ““++++” (<50 “++++”)”.

With `COc1cc(Cl)c(Cl)cc1-c1ccc([C@@H](O)[C@H]2O[C@H](CO)[C@@H](O)[C@H](O)[C@@H]2O)c(C)c1` [Example 20] as the compound, how does the “HAI titer EC > 90” value read?
The value was ““++++” (<50 “++++”)”.

For `Cc1cc(-c2cc(F)cc(Cl)c2)ccc1[C@@H](O)[C@H]1O[C@H](CO)[C@@H](O)[C@H](O)[C@@H]1O` [Example 22], which “HAI titer EC > 90” value is on record?
The value was ““++++” (<50 “++++”)”.

With `Cc1cc(-c2ccc(F)c(F)c2)ccc1[C@@H](O)[C@H]1O[C@H](CO)[C@@H](O)[C@H](O)[C@@H]1O` [Example 23] as the compound, how does the “HAI titer EC > 90” value read?
The value was ““+++” (50-200 “+++”)”.

Which “HAI titer EC > 90” value does the source give for `Cc1cc(-c2ccc(F)c(C(F)(F)F)c2)ccc1[C@@H](O)[C@H]1O[C@H](CO)[C@@H](O)[C@H](O)[C@@H]1O` [Example 25] here?
Its value is ““++++” (<50 “++++”)”.

How did the “HAI titer EC > 90” value turn out when `Cc1cc(-c2cc(Cl)cc(C(F)(F)F)c2)ccc1[C@@H](O)[C@H]1O[C@H](CO)[C@@H](O)[C@H](O)[C@@H]1O` [Example 26] was run?
Its value is ““++++” (<50 “++++”)”.

Which “HAI titer EC > 90” value does the source give for `COc1cc(-c2ccc([C@@H](O)[C@H]3O[C@H](CO)[C@@H](O)[C@H](O)[C@@H]3O)c(C)c2)ccc1F` [Example 27] here?
Its value is ““+++” (50-200 “+++”)”.

Which “HAI titer EC > 90” value does the source give for `Cc1cc(-c2ccc(OC(F)(F)F)c(F)c2)ccc1[C@@H](O)[C@H]1O[C@H](CO)[C@@H](O)[C@H](O)[C@@H]1O` [Example 28] here?
The value was ““+” (>1000 “+”)”.

How did the “HAI titer EC > 90” value turn out when `OC[C@H]1O[C@H]([C@H](O)c2ccc(-c3cc(F)cc(F)c3)cc2Cl)[C@@H](O)[C@@H](O)[C@@H]1O` [Example 29] was run?
The value was ““+++” (50-200 “+++”)”.

With `Cc1cc(-c2ccc(Cl)c(C(F)(F)F)c2)ccc1[C@@H](O)[C@H]1O[C@H](CO)[C@@H](O)[C@H](O)[C@@H]1O` [Example 30] as the compound, how does the “HAI titer EC > 90” value read?
The value was ““++++” (<50 “++++”)”.

For `Cc1cc(-c2ccc(F)c(OC(F)(F)F)c2)ccc1[C@@H](O)[C@H]1O[C@H](CO)[C@@H](O)[C@H](O)[C@@H]1O` [Example 31], which “HAI titer EC > 90” value is on record?
Its value is ““+++” (50-200 “+++”)”.

`COc1cc(OC)cc(-c2ccc([C@@H](O)[C@H]3O[C@H](CO)[C@@H](O)[C@H](O)[C@@H]3O)c(C)c2)c1` [Example 33] was tested. Which “HAI titer EC > 90” value did it give?
The value was ““++++” (<50 “++++”)”.

For `COc1cc(-c2ccc([C@@H](O)[C@H]3O[C@H](CO)[C@@H](O)[C@H](O)[C@@H]3O)c(C)c2)cc(F)c1F` [Example 34], which “HAI titer EC > 90” value is on record?
Its value is ““++++” (<50 “++++”)”.

Which “HAI titer EC > 90” value does the source give for `COc1c(F)cc(-c2ccc([C@@H](O)[C@H]3O[C@H](CO)[C@@H](O)[C@H](O)[C@@H]3O)c(C)c2)cc1F` [Example 35] here?
Its value is ““++++” (<50 “++++”)”.

For `Cc1cc(-c2cc(F)cc(OC(F)(F)F)c2)ccc1[C@@H](O)[C@H]1O[C@H](CO)[C@@H](O)[C@H](O)[C@@H]1O` [Example 36], which “HAI titer EC > 90” value is on record?
Its value is ““++++” (<50 “++++”)”.

`Cc1cc(-c2cc(F)cc(F)c2)cc(F)c1[C@@H](O)[C@H]1O[C@H](CO)[C@@H](O)[C@H](O)[C@@H]1O` [Example 37] was tested. Which “HAI titer EC > 90” value did it give?
Its value is ““++++” (<50 “++++”)”.

How did the “HAI titer EC > 90” value turn out when `Cc1cc(-c2ccc(C3CC3)c(F)c2)ccc1[C@@H](O)[C@H]1O[C@H](CO)[C@@H](O)[C@H](O)[C@@H]1O` [Example 38] was run?
Its value is ““+++” (50-200 “+++”)”.

Which “HAI titer EC > 90” value does the source give for `COc1cc(-c2ccc([C@@H](O)[C@H]3O[C@H](CO)[C@@H](O)[C@H](O)[C@@H]3O)c(C)c2)cc(OC)c1F` [Example 39] here?
The value was ““++++” (<50 “++++”)”.

With `Cc1cc(-c2ccc([C@@H](O)[C@H]3O[C@H](CO)[C@@H](O)[C@H](O)[C@@H]3O)c(C)c2)c(F)cc1Cl` [Example 40] as the compound, how does the “HAI titer EC > 90” value read?
Its value is ““+++” (50-200 “+++”)”.

With `Cc1cc(-c2ccc(C(F)(F)F)c(Cl)c2)ccc1[C@@H](O)[C@H]1O[C@H](CO)[C@@H](O)[C@H](O)[C@@H]1O` [Example 41] as the compound, how does the “HAI titer EC > 90” value read?
Its value is ““++++” (<50 “++++”)”.

Which “HAI titer EC > 90” value does the source give for `Cc1cc(-c2ccc(C(F)(F)F)cc2F)ccc1[C@@H](O)[C@H]1O[C@H](CO)[C@@H](O)[C@H](O)[C@@H]1O` [Example 42] here?
Its value is ““+++” (50-200 “+++”)”.

With `Cc1cc(-c2cc(OC(F)(F)F)ccc2F)ccc1[C@@H](O)[C@H]1O[C@H](CO)[C@@H](O)[C@H](O)[C@@H]1O` [Example 43] as the compound, how does the “HAI titer EC > 90” value read?
The value was ““+++” (50-200 “+++”)”.

Which “HAI titer EC > 90” value does the source give for `Cc1cc(-c2cc(Cl)ccc2F)ccc1[C@@H](O)[C@H]1O[C@H](CO)[C@@H](O)[C@H](O)[C@@H]1O` [Example 44] here?
The value was ““+++” (50-200 “+++”)”.

How did the “HAI titer EC > 90” value turn out when `Cc1cc(F)c(-c2ccc([C@@H](O)[C@H]3O[C@H](CO)[C@@H](O)[C@H](O)[C@@H]3O)c(C)c2)cc1F` [Example 45] was run?
The value was ““++++” (<50 “++++”)”.

`Cc1cc(-c2cc(C(F)(F)F)ccc2F)ccc1[C@@H](O)[C@H]1O[C@H](CO)[C@@H](O)[C@H](O)[C@@H]1O` [Example 46] was tested. Which “HAI titer EC > 90” value did it give?
The value was ““+++” (50-200 “+++”)”.

`Cc1cc(-c2cc(F)c(Cl)cc2F)ccc1[C@@H](O)[C@H]1O[C@H](CO)[C@@H](O)[C@H](O)[C@@H]1O` [Example 47] was tested. Which “HAI titer EC > 90” value did it give?
The value was ““++++” (<50 “++++”)”.

For `Cc1cc(-c2cc(Cl)c(F)cc2F)ccc1[C@@H](O)[C@H]1O[C@H](CO)[C@@H](O)[C@H](O)[C@@H]1O` [Example 48], which “HAI titer EC > 90” value is on record?
The value was ““+++” (50-200 “+++”)”.

`Cc1cc(-c2ccc(C(F)(F)F)c(F)c2F)ccc1[C@@H](O)[C@H]1O[C@H](CO)[C@@H](O)[C@H](O)[C@@H]1O` [Example 49] was tested. Which “HAI titer EC > 90” value did it give?
The value was ““+++” (50-200 “+++”)”.

With `Cc1cc(Cl)c(-c2ccc([C@@H](O)[C@H]3O[C@H](CO)[C@@H](O)[C@H](O)[C@@H]3O)c(C)c2)cc1F` [Example 50] as the compound, how does the “HAI titer EC > 90” value read?
Its value is ““+++” (50-200 “+++”)”.

Which “HAI titer EC > 90” value does the source give for `Cc1cc(-c2cc(F)cc(OC3CC3)c2)ccc1[C@@H](O)[C@H]1O[C@H](CO)[C@@H](O)[C@H](O)[C@@H]1O` [Example 51] here?
The value was ““++++” (<50 “++++”)”.

For `OC[C@H]1O[C@H]([C@H](O)c2c(F)cc(-c3cc(F)cc(F)c3)cc2Cl)[C@@H](O)[C@@H](O)[C@@H]1O` [Example 52], which “HAI titer EC > 90” value is on record?
The value was ““+++” (50-200 “+++”)”.
